According to patent US7901675B2, “Method of using coenzyme Q10 to treat Huntington's disease” (U.S. Department of Veterans Affairs, priority 2004, dated 2011):

Key:
R6/2 mice [1] = assay: Survival of R6/2 HD mice on oral CoQ10 in chow; format: in vivo
Description: There is substantial evidence that bioenergetic defects may play a role in the pathogenesis of HD. A possible therapy for diseases in which there is defective energy metabolism is to administer the mitochondrial cofactor coenzyme Q10(CoQ10).
(§1) The present invention is based, in part, on the discovery that increased level of CoQ10 appears to slow the progressive functional decline in […]. We orally administered CoQ10 at 400 mg/kg, and 1, 5, 10, and 20 g/kg in R6/2 mice starting at weaning in chow formulations.

R6/2 mice [2] = assay: Disease phenotype in R6/2 HD mice (weight loss, motor deficits, grip strength, brain atrophy, huntingtin inclusions); format: in vivo; settings: oral CoQ10 in chow
Description: as §1

[3] = oral administration, 400 mg/kg, previously demonstrated

COC1=C(OC)C(=O)C(C/C=C(\C)CC/C=C(\C)CC/C=C(\C)CC/C=C(\C)CC/C=C(\C)CC/C=C(\C)CC/C=C(\C)CC/C=C(\C)CC/C=C(\C)CCC=C(C)C)=C(C)C1=O [CoQ10, Coenzyme Q10]
neuroprotection (R6/2 mice [1]; [3]): neuroprotective | survival extension (R6/2 mice [1]; [3]): 14.5% | survival extension (R6/2 mice [1]; oral in chow from weaning, 5 g/kg (greatest extension), vs untreated R6/2 mice): 21.3% | survival in comparison to untreated R6/2 mice (R6/2 mice [1]; oral in chow from weaning, all doses (400 mg/kg, 1, 5, 10, 20 g/kg)): significantly extended survival at all doses | development of brain atrophy (R6/2 mice [2]): significantly delayed | development of grip strength deficit (R6/2 mice [2]): significantly delayed | development of huntingtin inclusions (R6/2 mice [2]): significantly delayed | development of motor deficits (R6/2 mice [2]): significantly delayed | development of weight loss (R6/2 mice [2]): significantly delayed
